# Reference: PubChem BioAssay (NCI)
# Where “and” joins values, the source holds several entries; their conditions need not be identical. Identical values can stand only once.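 Tested at 5 concentrations; 48 h exposure; 96-well plates; endpoints linearly interpolated, else capped at highest concentration. Here, GI50 denotes the concentration required for 50% inhibition of growth. At the TGI there is no net growth.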
# Assays:
# Test in all cases: inhibition of tumour cell growth, NCI panel, 48 h
# [1] = system: UACC-257 melanoma
# [2] = system: NCI-H522 lung
# [3] = system: SK-OV-3 ovarian
# [4] = system: BT-549 breast
# [5] = system: KM12 colon
# [6] = system: EKVX NSCLC
# [7] = system: OVCAR-5 ovarian
# [8] = system: OVCAR-8 ovarian
# [9] = system: SF-295 CNS
# [10] = system: SK-MEL-2 melanoma
Compound,GI50 [1] [µM],TGI [2] [µM],GI50 [3] [µM],TGI [3],GI50 [4] [µM],GI50 [5] [µM],TGI [5],GI50 [6] [µM],GI50 [7] [µM],TGI [7],GI50 [8] [µM],TGI [8],TGI [9],GI50 [10] [µM],TGI [10],TGI [1],TGI [6],GI50 [9] [µM],GI50 [2] [µM],TGI [4]
COc1cc(C(=O)c2cnc(-c3c[nH]c4cccc(C)c34)[nH]2)cc(OC)c1OC,0.332,0.0224,0.0065,2.5 µM,0.0204,0.00482,> 100 µM,0.00804,0.0746,> 100 µM,0.0078,43.2 µM,52.9 µM,0.00745,30.7 µM,–,–,–,–,–
CCCCCCCCCCCC/C=C\CC[C@@H](O)[C@H](O)CC[C@H](O)[C@@H]1CC[C@@H](CCCCCCCC2=C[C@H](C)OC2=O)O1,1.94,25.9,–,–,12.8,12.9,46 µM,11.6,–,38.4 µM,8.16,38 µM,15.5 µM,12.6,33.4 µM,4.21 µM and 19.6 µM,28.9 µM,0.291,–,–
CN(C)CCCN1c2ccccc2Sc2ccc(C(F)(F)F)cc21,1.62,–,1.53,–,1.77,1.65,–,1.84,1.63,3.25 µM and 31.6 µM,1.73,3.33 µM and 30 µM,3.23 µM and 30.4 µM and 29.1 µM,1.79,3.69 µM and 30.5 µM,3.49 µM and 29.5 µM and 26.7 µM,4.75 µM and 35.7 µM and 29.3 µM,1.65,1.39,3.32 µM and 26.5 µM
O=C1CCC(c2ccccc2)=NN1c1nc2ccccc2s1,–,59,–,79.6 µM,–,–,> 100 µM,–,–,> 100 µM,–,> 100 µM,> 85.2 µM,–,42.5 µM,> 80.2 µM,> 100 µM,–,–,82.5 µM
CC(C)(O)C1COC2=C1C(=O)c1ccccc1C2=O (stereo unspecified),–,> 100,–,> 100 µM,–,–,> 100 µM,–,–,54 µM,–,84.6 µM,> 100 µM,–,88.6 µM,> 100 µM,> 100 µM,–,–,42.9 µM
Cc1sc(/N=C/C2=C(O)CC(C)(C)CC2=O)nc1-c1ccccc1,–,> 100,–,> 100 µM,–,–,> 100 µM,–,–,> 100 µM,–,> 100 µM,> 100 µM,–,> 100 µM,> 100 µM,> 100 µM,–,–,> 100 µM
CC(=O)ON(OCc1ccc2ccccc2c1)C(C)=O,> 100,> 100,> 100,> 100 µM,> 100,> 100,> 100 µM,32.3,> 100,> 100 µM,> 100,> 100 µM,> 100 µM,> 100,> 100 µM,> 100 µM,> 100 µM,> 100,> 100,> 100 µM
CCCCNc1ncnc2c1cnn2-c1ccccc1,11,9.94,3.2,31.2 µM,6.71,0.474,27.2 µM,7.72,12.9,> 100 µM,4.62,> 88.1 µM,20.3 µM,2.82,> 100 µM,> 83.8 µM,> 86.6 µM,1.88,0.799,> 69 µM
Clc1ccc2c(NCCNc3nc(N4CCOCC4)nc4ccccc34)ccnc2c1,2.07,3.8,1.85,3.85 µM,2.07,2.66,8.16 µM,4,3.34,12.6 µM,2.18,5.24 µM,3.24 µM,1.95,3.72 µM,4.33 µM,16.4 µM,1.75,2.03,4.69 µM
COc1cc(C2CC(c3ccccc3)=NN2C=O)ccc1Oc1ccnc2cc(Cl)ccc12 (stereo unspecified),–,> 100,4.56,> 100 µM,2.24,> 100,> 100 µM,3.67,> 100,> 100 µM,4.91,> 100 µM,86.2 µM,8.68,38.6 µM,–,> 100 µM,5.58,5.28,14.1 µM
Cc1cc(C)c2nc3c(c(C(O)C4CCCCN4)c2c1)CC/C3=C\c1ccc(Cl)cc1 (stereo unspecified),–,> 100,–,> 100 µM,–,–,> 100 µM,–,–,> 100 µM,–,> 100 µM,> 100 µM,–,> 100 µM,> 100 µM,> 100 µM,–,–,> 100 µM
COc1cc2c(c(OC)c1OC)-c1cc(I)c(O)cc1[C@@H](NC(C)=O)CC2,49.1,> 100,0.0476,> 65.8 µM,0.134,0.0432,1.36 µM,0.419,0.237,> 100 µM,0.187,> 100 µM,> 100 µM,23.1,> 100 µM,> 100 µM,> 100 µM,0.037,0.0484,2.95 µM
CCSC[C@@H]1C[C@](O)(c2ccccc2)[C@@H](c2ccccc2)O1,> 82.3,> 100,> 100,> 100 µM,89.1,> 75.8,> 100 µM,59.2,> 100,> 100 µM,> 100,> 100 µM,> 100 µM,> 100,> 100 µM,> 100 µM,> 100 µM,46.2,58.4,> 100 µM
COC(=O)[C@@]12OC[C@]34[C@H]([C@@H](O)[C@@H]1O)[C@@]1(C)CC(=O)C(O)=C(C)[C@@H]1C[C@H]3OC(=O)[C@H](OC(=O)/C=C(\C)C(C)C)[C@@H]24,–,0.00723,–,0.0254 µM and 0.175 µM,0.0262,–,0.03 µM and 0.146 µM and 0.0574 µM,–,–,–,–,0.0406 µM and 0.0561 µM,0.0345 µM and 0.0582 µM,0.00517,0.0195 µM and 0.0303 µM,0.0316 µM and 0.0305 µM,0.0517 µM and 0.0283 µM and 0.0316 µM,–,–,0.06 µM and 0.0156 µM and 0.0214 µM
Cc1cc(NC(=O)NCc2ccc(N3C(N)=NC(N)=NC3(C)C)cc2)ccc1S(=O)(=O)F,33.6,> 100,36.6,> 100 µM,4.97,0.665,> 100 µM,13.8,> 25.4,> 100 µM,6.76,> 100 µM,> 100 µM,45,> 100 µM,> 100 µM,> 100 µM,1.57,6.1,> 67.6 µM
O=c1cc(-c2ccccc2)oc2ccc(Cl)cc12,–,> 100,–,> 100 µM,–,–,> 80.6 µM,–,–,> 100 µM,–,> 100 µM,99.1 µM,–,> 100 µM,> 74.6 µM,> 97 µM,–,–,> 100 µM
Nc1ncn([C@H]2CC(O)[C@@H](CO)S2)c(=O)n1 (stereo partly specified),–,> 100,28.9,> 100 µM,8.27,3.27,> 100 µM,32.8,23.3,> 100 µM,0.42,> 100 µM,> 100 µM,7.05,> 100 µM,–,> 100 µM,35.5,0.154,> 100 µM
[Br][Pb]([c]1ccccc1)([c]1ccccc1)[c]1ccccc1,0.193,0.352,0.401,1.51 µM,0.198,0.356,1.21 µM,0.183,0.289,1.22 µM,0.186,0.384 µM,–,0.218,0.539 µM,0.43 µM,0.439 µM,–,0.158,0.541 µM
CC1(C)N=C(N)N=C(N)N1c1ccc(CCCC(=O)Nc2ccc(S(=O)(=O)F)cc2)cc1,24.8,> 100,> 100,> 100 µM,22.8,3.54,> 100 µM,–,12,> 100 µM,12.9,> 100 µM,> 100 µM,46.2,> 100 µM,> 100 µM,–,38.6,8.4,> 100 µM
O=C(/C=C/c1ccc(O)c(O)c1)N1CCN(c2ccc(Cl)cc2)CC1,7.72,12.6,10.1,67.7 µM,5.21,7.65,26.6 µM,–,13.3,85.7 µM,5.46,44.4 µM,> 100 µM,12.1,31.9 µM,50 µM,–,19.1,1.83,45.6 µM
CCN(CC)CCOC(COc1cc(C)cc(C)c1)COc1cc(C)cc(C)c1,4.89,18.3,4.86,17.7 µM,6.12,3.04,11.7 µM,2.91,1.85,6.18 µM,7.23,22.2 µM,–,11.6,25.8 µM,17.2 µM,11.8 µM,–,4.51,20.7 µM
